Where two headings read alike, the source gives them in different places.
Key:
[1] = tested on: HIV-1 isolate 4xAZT/L100I; assay: Cytopathic cell killing assay, MT-4 cells, isolate 4xAZT/L100I; assay type: cell-based; conditions: Human immunodeficiency virus 1, MT4, read-out: EC50, isolate 4XAZT/L1001
Description: The various HIV isolates tested in the Figures are those corresponding to wild-type virus (NL4-3) and the other strains listed by their RT mutations. The three 4×AZT isolates included in the Figures represent AZT drug-resistant variants.
Briefly, in this method cells (e.g., the CEM-SS cell line, available from the NIAID AIDS Research and Reference Program [ARRRP]) were seeded at a density of 5×10^3 cells/well, into the wells of a 96-well microtiter plate. The cells were then infected with HIV virus (either mutant or WT), at a multiplicity of infection (MOI) previously determined to provide complete cell killing by 6 days of culture post-infection (e.g., MOI of 0.01-0.05). Each of the HIV isolates was pre-titered to induce equivalent levels of infection based on cell killing or virus production, prior to their use in these assays. A range of test compound concentrations was added to the wells in triplicate (e.g., serial half-log dilutions) to evaluate inhibition of HIV infection. Controls for each assay included drug controls (drug colorimetric control wells), drug cytotoxicity control wells (cells with drug), virus control wells (cells with virus), and cell viability controls (cells only). Positive control drugs (e.g. AZT and ddC) were also run in parallel.
(§1) After six days of incubation at 37° C., cell viability was determined spectrophotometrically at 450 nm for each well, using the metabolic reduction of XTT to a soluble colored formazan. (See, Gartner and Popovic, “Virus Isolation and Production, in Aldovini and Walker (eds.), Techniques in HIV Research, Stockton Press, NY, pp. […] [1991]; and Nara and Fischinger, “Quantitative Infectivity Assay for HIV-1 and HIV-2, ” Nature 332:469-470 [1988]).
The in vitro therapeutic index (TI50) was defined as the fold-difference between the EC50 and IC50.

HIV-1 isolate M184I = assay: Cytopathic cell killing assay, isolate M184I; assay type: cell-based; conditions: Human immunodeficiency virus 1, read-out: EC50, isolate M184I
Text: (§2) The various HIV isolates tested in the Figures are those corresponding to wild-type virus (NL4-3) and the other strains listed by their RT mutations. The three 4×AZT isolates included in the Figures represent AZT drug-resistant variants. For example, the 4×AZT/L100I isolate has five mutations: four mutations confer increased resistance to AZT, and the other mutation is located within the NNRTI binding pocket. TZB and nevir. (nevirapine) are two well-known NNRTIs, included in this experiment for comparison purposes.
In this Example, the antiviral and cellular toxicity of NNRTIs was investigated, using the cytopathic cell killing assay described by Yang (Yang et al., “Characteristics of a Group of Non-nucleoside Reverse Transcriptase Inhibitors with Structural Diversity and Potent Anti-Human Immunodeficiency Virus Activity,” Leukemia 9:S75-S85 [1995]). Briefly, in this method cells (e.g., the CEM-SS cell line, available from the NIAID AIDS Research and Reference Program [ARRRP]) were seeded at a density of 5×10^3 cells/well, into the wells of a 96-well microtiter plate. The cells were then infected with HIV virus (either mutant or WT), at a multiplicity of infection (MOI) previously determined to provide complete cell killing by 6 days of culture post-infection (e.g., MOI of 0.01-0.05). Each of the HIV isolates was pre-titered to induce equivalent levels of infection based on cell killing or virus production, prior to their use in these assays. A range of test compound concentrations was added to the wells in triplicate (e.g., serial half-log dilutions) to evaluate inhibition of HIV infection. […]
After six days of incubation at 37° C., cell viability was determined spectrophotometrically at 450 nm for each well, using the metabolic reduction of XTT to a soluble colored formazan. (See, Gartner and Popovic, “Virus Isolation and Production, in Aldovini and Walker (eds.), Techniques in HIV Research, Stockton Press, NY, pp. […] [1991]; and Nara and Fischinger, “Quantitative Infectivity Assay for HIV-1 and HIV-2, ” Nature 332:469-470 [1988]). […]

HIV-1 WT RT = HIV-1 WT RT (Human immunodeficiency virus type 1 group M subtype B, UniProt P03366); assay: biochemical; assay type: biochemical
HIV-1 isolate V179D = assay: Cytopathic cell killing assay, MT-4 cells, isolate V179D; assay type: cell-based
Text: as §2
(§3) In this Example, the antiviral and cellular toxicity of NNRTIs was investigated, using the cytopathic cell killing assay described by Yang (Yang et al., “Characteristics of a Group of Non-nucleoside Reverse Transcriptase Inhibitors with Structural Diversity and Potent Anti-Human Immunodeficiency Virus Activity,” Leukemia 9:S75-S85 [1995]). Briefly, in this method cells (e.g., the CEM-SS cell line, available from the NIAID AIDS Research and Reference Program [ARRRP]) were seeded at a density of 5×10^3 cells/well, into the wells of a 96-well microtiter plate. The cells were then infected with HIV virus (either mutant or WT), at a multiplicity of infection (MOI) previously determined to provide complete cell killing by 6 days of culture post-infection (e.g., MOI of 0.01-0.05). Each of the HIV isolates was pre-titered to induce equivalent levels of infection based on cell killing or virus production, prior to their use in these assays. A range of test compound concentrations was added to the wells in triplicate (e.g., serial half-log dilutions) to evaluate inhibition of HIV infection. Controls for each assay included drug controls (drug colorimetric control wells), drug cytotoxicity control wells (cells with drug), virus control wells (cells with virus), and cell viability controls (cells only). Positive control drugs (e.g. AZT and ddC) were also run in parallel.
as §1
(§4) The in vitro therapeutic index (TI50) was defined as the fold-difference between the EC50 and IC50. The results for the various compounds are included in FIGS. 8 and 19.

HIV-1 isolate K103N = assay: Cytopathic cell killing assay, MT-4 cells, isolate K103N; assay type: cell-based
Text: as §2, §3, §1, §4

HIV-1 NL4-3 (WT) = assay: Cytopathic cell killing assay, MT-4 cells, isolate NL4-3 (WT); assay type: cell-based
Text: as §2, §3, §1, §4

[2] = Human immunodeficiency virus 1, MT4, read-out: EC50, isolate K103N, Table 8, MT-4 cells

Nc1cccc2c1nc(-c1c(F)cccc1F)n2Cc1c(F)cccc1F [Compound 3300, 4-amino-1-(2,6-difluorobenzyl)-2-(2,6-difluorophenyl)benzimidazole]
EC50 [1]: 0.3 µM | EC50 (HIV-1 isolate M184I): 0.65 µM | IC50 (HIV-1 WT RT): 0.28 µM | inhibition at 1 µM (HIV-1 WT RT; Table 7, 1 μM drug, WT HIV-1 RT, read-out: % inhibn (1 μM)): 69% | EC50 (HIV-1 isolate V179D; Human immunodeficiency virus 1, MT4, read-out: EC50, isolate V179D, Table 8, MT-4 cells): 0.3 µM | melting point: 168 to 170 °C | EC50 (HIV-1 isolate K103N; [2]): > 20 µM | EC50 (HIV-1 NL4-3 (WT); Human immunodeficiency virus 1, NL43, MT4, Table 8, MT-4 cells, read-out: EC50, isolate NL4-3): 0.5 µM | EC50 (HIV-1 NL4-3 (WT); Human immunodeficiency virus 1, NL43, MT4, Table 10, values in μM, read-out: EC50, isolate NL4-3 (WT)): 0.68 µM | EC50 (HIV-1 NL4-3 (WT); Table 10, values in μM, listed as NH2, read-out: EC50, isolate NL4-3 (WT)): 0.4 µM

CCc1cccc2c1nc(-c1c(F)cccc1F)n2Cc1c(F)cccc1F [Compound 4011, 1-(2,6-difluorobenzyl)-2-(2,6-difluorophenyl)-4-ethylbenzimidazole]
EC50 [1]: 0.6 µM | EC50 (HIV-1 isolate M184I): 0.96 µM | EC50 (HIV-1 isolate V179D; Human immunodeficiency virus 1, MT4, read-out: EC50, isolate V179D): 1.8 µM | melting point: 165 to 166 °C | EC50 (HIV-1 isolate K103N; [2]): > 20 µM | EC50 (HIV-1 isolate K103N; Human immunodeficiency virus 1, MT4, read-out: EC50, isolate K103N, Table 10, values in μM): > 50 µM | EC50 (HIV-1 NL4-3 (WT); Human immunodeficiency virus 1, NL43, MT4, read-out: EC50, isolate NL4-3): 1.1 µM | EC50 (HIV-1 NL4-3 (WT); Human immunodeficiency virus 1, NL43, MT4, read-out: EC50, isolate NL4-3 (WT)): 0.9 µM

Source: US6894068B2, “Substituted benzimidazoles as non-nucleoside inhibitors of reverse transcriptase” (The United States of America as represented by the …, priority 1997, dated 2005)
